From US8697739B2, “Bicyclic acetyl-CoA carboxylase inhibitors and uses thereof” (Novartis AG, priority 2010, dated 2014)

Target: T1, human acetyl-CoA carboxylase 2 (ACC2) (Homo sapiens, UniProt O00763)
T1 construct: The cDNA encoding amino acids 144 to 2458 of human acetyl-CoA carboxylase 2; made in house; host or cells: Sf9 insect cells (baculovirus, pFastBac1)
Test: Acetyl-CoA carboxylase enzyme assay (malonyl-CoA formation by LC/MS/MS)
Assay type: biochemical
Settings: recombinant human ACC2 (aa 144-2458); read-out: IC50 ACC2
How it was run: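 Malonyl-CoA formation was read by LC/MS/MS MRM against a [13C3]-malonyl-CoA internal standard, after acetic acid quench. The enzyme was baculovirus/Sf9-expressed human ACC2 residues 144–2458, given 15 minutes room-temperature compound preincubation in HEPES pH 7.5 buffer with MgCl2, citrate and DTT. Substrate solution held 50 μM acetyl-CoA, 120 μM ATP and 2 mM KHCO3.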

T1 sequence (O00763 144-2458): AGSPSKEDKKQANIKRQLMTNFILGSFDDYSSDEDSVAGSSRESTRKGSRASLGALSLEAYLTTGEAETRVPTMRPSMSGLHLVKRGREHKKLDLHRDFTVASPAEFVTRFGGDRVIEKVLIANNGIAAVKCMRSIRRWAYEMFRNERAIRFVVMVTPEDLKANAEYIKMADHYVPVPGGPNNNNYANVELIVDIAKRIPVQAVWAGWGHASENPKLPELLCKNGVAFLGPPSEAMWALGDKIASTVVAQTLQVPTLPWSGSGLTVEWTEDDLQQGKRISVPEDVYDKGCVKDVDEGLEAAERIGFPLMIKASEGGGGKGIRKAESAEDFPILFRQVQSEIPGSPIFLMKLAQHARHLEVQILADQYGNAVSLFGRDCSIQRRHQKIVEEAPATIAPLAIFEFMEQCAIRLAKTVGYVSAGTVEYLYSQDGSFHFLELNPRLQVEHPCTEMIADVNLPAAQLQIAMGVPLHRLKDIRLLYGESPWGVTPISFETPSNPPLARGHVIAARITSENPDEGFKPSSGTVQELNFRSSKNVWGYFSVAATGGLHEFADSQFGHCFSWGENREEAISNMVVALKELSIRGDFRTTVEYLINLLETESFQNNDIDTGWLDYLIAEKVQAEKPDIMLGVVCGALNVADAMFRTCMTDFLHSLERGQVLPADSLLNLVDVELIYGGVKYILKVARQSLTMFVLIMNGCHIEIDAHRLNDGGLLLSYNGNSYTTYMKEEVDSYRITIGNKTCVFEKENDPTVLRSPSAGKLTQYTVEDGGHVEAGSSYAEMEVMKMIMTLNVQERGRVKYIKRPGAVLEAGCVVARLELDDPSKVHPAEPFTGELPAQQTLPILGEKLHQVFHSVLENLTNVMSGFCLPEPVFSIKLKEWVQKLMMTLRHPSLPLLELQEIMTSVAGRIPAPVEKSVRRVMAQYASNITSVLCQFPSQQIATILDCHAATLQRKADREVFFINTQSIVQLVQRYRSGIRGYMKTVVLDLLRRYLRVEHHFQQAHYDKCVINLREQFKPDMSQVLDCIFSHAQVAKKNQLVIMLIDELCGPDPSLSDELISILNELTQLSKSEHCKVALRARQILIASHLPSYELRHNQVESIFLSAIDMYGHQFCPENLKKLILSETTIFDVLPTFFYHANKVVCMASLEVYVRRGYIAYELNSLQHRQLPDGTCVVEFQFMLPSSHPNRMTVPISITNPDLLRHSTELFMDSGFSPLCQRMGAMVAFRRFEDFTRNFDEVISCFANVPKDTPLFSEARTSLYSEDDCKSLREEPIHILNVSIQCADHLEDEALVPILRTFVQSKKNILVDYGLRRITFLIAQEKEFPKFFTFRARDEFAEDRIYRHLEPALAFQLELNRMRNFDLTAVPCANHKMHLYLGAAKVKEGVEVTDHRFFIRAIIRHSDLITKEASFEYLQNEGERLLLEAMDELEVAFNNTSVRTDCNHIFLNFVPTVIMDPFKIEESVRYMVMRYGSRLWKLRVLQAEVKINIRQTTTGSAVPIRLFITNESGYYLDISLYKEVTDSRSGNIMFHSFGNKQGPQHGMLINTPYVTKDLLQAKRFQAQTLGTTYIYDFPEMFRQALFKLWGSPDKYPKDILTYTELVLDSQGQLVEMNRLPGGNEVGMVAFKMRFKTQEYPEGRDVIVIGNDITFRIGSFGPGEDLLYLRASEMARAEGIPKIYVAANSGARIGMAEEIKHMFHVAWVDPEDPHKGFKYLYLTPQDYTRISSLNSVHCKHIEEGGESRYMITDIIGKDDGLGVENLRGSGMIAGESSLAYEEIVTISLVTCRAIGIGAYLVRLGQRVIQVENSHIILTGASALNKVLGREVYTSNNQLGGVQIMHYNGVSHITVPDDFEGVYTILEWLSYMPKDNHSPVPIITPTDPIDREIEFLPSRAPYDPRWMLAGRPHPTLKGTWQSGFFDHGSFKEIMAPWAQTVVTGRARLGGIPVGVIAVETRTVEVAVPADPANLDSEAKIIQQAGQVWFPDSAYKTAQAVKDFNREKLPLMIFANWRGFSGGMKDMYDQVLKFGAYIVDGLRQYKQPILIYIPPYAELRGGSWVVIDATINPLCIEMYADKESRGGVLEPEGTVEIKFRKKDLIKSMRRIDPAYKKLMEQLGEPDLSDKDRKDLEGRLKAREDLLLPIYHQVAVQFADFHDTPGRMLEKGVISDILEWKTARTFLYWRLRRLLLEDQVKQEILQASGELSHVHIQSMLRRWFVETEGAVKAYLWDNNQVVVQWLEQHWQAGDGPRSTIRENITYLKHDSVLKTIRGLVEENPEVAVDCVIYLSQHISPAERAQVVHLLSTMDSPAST

| IC50 | Structure (SMILES) |
| --- | --- |
| < 10 nM | Cn1c(-c2ccc(CCC(=O)O)cc2)cc2ccc(S(=O)(=O)N[C@H]3CC[C@H](C(=O)N4CCC[C@H]4c4ccc(F)cc4)CC3)cc21 [Example 393, 3-(4-(6-(N-((1S,4r)-4-((S)-2-(4-fluorophenyl)pyrrolidine-1-carbonyl)cyclohexyl)sulfamoyl)-1-methyl-1H-indol-2-yl)phenyl)propanoic acid] |
| 15 nM | COC(=O)CCc1ccc(-c2cc3ccc(S(=O)(=O)N[C@H]4CC[C@H](C(=O)N5CCCC5C(C)(C)C)CC4)cc3n2C)cc1 (stereo partly drawn) [Example 394, methyl 3-(4-(6-(N-((1r,4r)-4-(2-tert-butylpyrrolidine-1-carbonyl)cyclohexyl)sulfamoyl)-1-methyl-1H-indol-2-yl)phenyl)propanoate] |
| < 10 nM | Cn1c(-c2ccc(CCC(=O)O)cc2)cc2ccc(S(=O)(=O)N[C@H]3CC[C@H](C(=O)N4CCCC4C(C)(C)C)CC3)cc21 (stereo partly drawn) [Example 395, 3-(4-(6-(N-((1r,4r)-4-(2-tert-butylpyrrolidine-1-carbonyl)cyclohexyl)sulfamoyl)-1-methyl-1H-indol-2-yl)phenyl)propanoic acid] |
| 10 nM | COC(=O)C(C)(C)[C@@H](NC(=O)[C@H]1CC[C@H](NS(=O)(=O)c2ccc3cc(C4CC4)n(C)c3c2)CC1)c1ccccc1 [Example 396, (S)-methyl 3-((1r,4S)-4-(2-cyclopropyl-1-methyl-1H-indole-6-sulfonamido)cyclohexanecarboxamido)-2,2-dimethyl-3-phenylpropanoate] |
| < 10 nM | Cn1c(-c2ccc(CCC(=O)O)cc2)cc2ccc(S(=O)(=O)N[C@H]3CC[C@H](C(=O)N4CCC[C@@H]4C(F)(F)F)CC3)cc21 [Example 397, 3-(4-(1-methyl-6-(N-((1R,4r)-4-((R)-2-(trifluoromethyl)pyrrolidine-1-carbonyl)cyclohexyl)sulfamoyl)-1H-indol-2-yl)phenyl)propanoic acid] |
| < 10 nM | C[C@@H](OC(=O)C1(C)CCC(NS(=O)(=O)c2ccc3c(ccn3C)c2)CC1)c1ccccc1 (stereo partly drawn) [Example 398, (R)-1-phenylethyl 1-methyl-4-(1-methyl-1H-indole-5-sulfonamido)cyclohexanecarboxylate] |
| 340 nM | Cn1c(-c2ccc(CCC(=O)O)cc2)cc2ccc(S(=O)(=O)N[C@H]3CC[C@H](C(=O)N4CCC[C@H]4C(C)(C)C)CC3)cc21 [Example 399, 3-(4-(6-(N-((1S,4r)-4-((S)-2-tert-butylpyrrolidine-1-carbonyl)cyclohexyl)sulfamoyl)-1-methyl-1H-indol-2-yl)phenyl)propanoic acid] |
| < 10 nM | Cn1c(-c2ccc(CCC(=O)O)cc2)cc2ccc(S(=O)(=O)N[C@H]3CC[C@H](C(=O)N4CCC[C@@H]4C(C)(C)C)CC3)cc21 [Example 400, 3-(4-(6-(N-((1R,4r)-4-((R)-2-tert-butylpyrrolidine-1-carbonyl)cyclohexyl)sulfamoyl)-1-methyl-1H-indol-2-yl)phenyl)propanoic acid] |
| 25 nM | CC1COCCN1C(=O)[C@H]1CC[C@H](NS(=O)(=O)c2ccc3c(C#N)c(C4CC4)n(C)c3c2)CC1 (stereo partly drawn) [Example 401, 3-cyano-2-cyclopropyl-1-methyl-N-((1r,4r)-4-(3-methylmorpholine-4-carbonyl)cyclohexyl)-1H-indole-6-sulfonamide] |
| 130 nM | Cn1c(-c2ccccc2)cc2ccc(S(=O)(=O)N[C@H]3CC[C@H](C(=O)N4CCCOCC4)CC3)cc21 [Example 402, N-((1r,4r)-4-(1,4-oxazepane-4-carbonyl)cyclohexyl)-1-methyl-2-phenyl-1H-indole-6-sulfonamide] |
| 10 nM | Cn1c(-c2ccccc2)cc2ccc(S(=O)(=O)N[C@H]3CC[C@H](C(=O)N4CCC[C@@H](C(C)(C)O)C4)CC3)cc21 [Example 403, N-((1R,4r)-4-((R)-3-(2-hydroxypropan-2-yl)piperidine-1-carbonyl)cyclohexyl)-1-methyl-2-phenyl-1H-indole-6-sulfonamide] |
| < 10 nM | Cn1c(-c2ccccc2)cc2ccc(S(=O)(=O)N[C@H]3CC[C@H](C(=O)N4CCC[C@H](C(C)(C)O)C4)CC3)cc21 [Example 404, N-((1S,4r)-4-((S)-3-(2-hydroxypropan-2-yl)piperldine-1-carbonyl)cyclohexyl)-1-methyl-2-phenyl-1H-indole-6-sulfonamide] |
| 35 nM | C[C@H]1CCCCN1C(=O)[C@H]1CC[C@H](NS(=O)(=O)c2ccc3cc(-c4ccccc4)n(C)c3c2)CC1 [Example 405, 1-methyl-N-((1S,4r)-4-((S)-2-methylpiperidine-1-carbonyl)cyclohexyl)-2-phenyl-1H-indole-6-sulfonamide] |
| 985 nM | Cn1c(-c2ccccc2)cc2ccc(S(=O)(=O)N[C@H]3CC[C@H](C(=O)N4CCN(C5CC5)CC4)CC3)cc21 [Example 406, N-((1r,4r)-4-(4-cyclopropylpiperazine-1-carbonyl)cyclohexyl)-1-methyl-2-phenyl-1H-indole-6-sulfonamide] |
| < 10 nM | COC(=O)C(C)(C)[C@@H](NC(=O)[C@H]1CC[C@H](NS(=O)(=O)c2ccc3cc(-c4ccccc4)n(C)c3c2)CC1)c1ccccc1 [Example 407, (S)-methyl 2,2-dimethyl-3-((1r,4S)-4-(1-methyl-2-phenyl-1H-indole-6-sulfonamido)cyclohexanecarboxamido)-3-phenylpropanoate] |
| 20 nM | COC[C@H]1CCCN1C(=O)[C@H]1CC[C@H](NS(=O)(=O)c2ccc3cc(-c4ccccc4)n(C)c3c2)CC1 [Example 408, N-((1R,4r)-4-((R)-2-(methoxymethyl)pyrrolidine-1-carbonyl)cyclohexyl)-1-methyl-2-phenyl-1H-indole-6-sulfonamide] |
| < 10 nM | Cn1c(C2CC2)cc2ccc(S(=O)(=O)N[C@H]3CC[C@H](C(=O)N[C@@H](c4ccccc4)C(C)(C)C(=O)O)CC3)cc21 [Example 409, (S)-3-((1r,4S)-4-(2-cyclopropyl-1-methyl-1H-indole-6-sulfonamido)cyclohexanecarboxamido)-2,2-dimethyl-3-phenylpropanoic acid] |
| 20 nM | C[C@H]1CCCCN1C(=O)[C@H]1CC[C@H](NS(=O)(=O)c2ccc3cc(-c4ccc(CCC(=O)O)cc4)n(C)c3c2)CC1 [Example 410, 3-(4-(1-methyl-6-(N-((1S,4r)-4-((S)-2-methylpiperidine-1-carbonyl)cyclohexyl)sulfamoyl)-1H-indol-2-yl)phenyl)propanoic acid] |
| < 10 nM | Cn1c(-c2ccccc2)cc2ccc(S(=O)(=O)N[C@H]3CC[C@H](C(=O)N[C@@H](c4ccccc4)C(C)(C)C(=O)O)CC3)cc21 [Example 411, (S)-2,2-dimethyl-3-((1r,4S)-4-(1-methyl-2-phenyl-1H-indole-6-sulfonamido)cyclohexanecarboxamido)-3-phenylpropanoic acid] |
| 240 nM | C[C@H]1CN(C)CCN1C(=O)[C@H]1CC[C@H](NS(=O)(=O)c2ccc3cc(-c4ccccc4)n(C)c3c2)CC1 [Example 412, N-((1S,4r)-4-((S)-2,4-dimethylpiperazine-1-carbonyl)cyclohexyl)-1-methyl-2-phenyl-1H-indole-6-sulfonamide] |
| 50 nM | C[C@@H]1COCCN1C(=O)[C@H]1CC[C@H](NS(=O)(=O)c2ccc3c(C#N)c(C4CC4)n(C)c3c2)CC1 [Example 413, 3-cyano-2-cyclopropyl-1-methyl-N-((1R,4r)-4-((R)-3-methylmorpholine-4-carbonyl)cyclohexyl)-1H-indole-6-sulfonamide] |
